Results taken from patent US20110207817A1, “ANTI-INFLAMMATORY COMPOUNDS AND COMPOSITIONS THEREOF” (priority 2008, published 2011).

What was measured:
Type in all cases: cell-based
[1] = system: human gingival fibroblast HGF cells; assay: LPS-mediated IL-8 production (Example 4)
Procedure: (§1) In the presence and absence of sodium propyl paraben, mouse macrophage cells (RAW 264.7) and human gingival cells (HGF) were stimulated with LPS and the levels of inflammatory mediators Prostaglandin E2 (PGE2) and interleukin 8 (IL-8) in the cell supernatants were measured. While LPS administration increased the secretion of inflammatory mediators, sodium propyl paraben decreased LPS induced secretion of these mediators in a dose dependent manner. Sodium propyl paraben was identified as a novel anti-inflammatory agent, inhibiting the secretion of inflammatory mediators from both leukocytes and gingival fibroblasts. Mouse macrophage Raw 264.7 cells and human gingival fibroblast HGF cells were purchased from ATCC (Manassas, Va.) and ScienCell LLC (Carlsbad, Calif.), respectively. All of the culturing reagents were purchased from Mediatech (Manassas, Va.) unless otherwise stated. Both cell lines were cultured in a humidified incubator at 37° C. and in the presence of 5% CO2 and maintained in Dulbecco's Modified Eagle Medium (DMEM, 4.5 g/l glucose) supplemented with 10% Fetal Bovine Serum (FBS) and 1% penicillin-streptomycin. […] The level of PGE2 or IL-8 was analyzed using commercially available enzyme-linked immunosorbent assay (ELISA) kits (R&D Systems, Minneapolis, Minn.). […]

[2] = system: Human Gingival Fibroblast (HGF) cells; assay: PGE2 release from LPS-irritated Human Gingival Fibroblast cells, neat solution (Example 1); details: for PGE2 Release (with LPS): 2 μg/mL P. gingivalis LPS, negative control without LPS = 100%
Procedure: For Examples 1 through 3, three sets of cell culture experiments were conducted in order to establish the anti-inflammatory efficacy of sodium propyl paraben. In all cases, in-vitro testing was conducted using Human Gingival Fibroblast cells suspended in low serum media. To irritate the cells, 2 μg/mL lipopolysaccharide (LPS) derived from P. gingivalis was added to the media. Sodium propyl paraben was added either directly to the media or incorporated into an adhesive matrix which was then suspended into the media by means of a permeable plastic insert. Cellular response was quantified by the presence of Prostaglandin E2 (PGE2), a cytokine associated with cellular irritation and inflammation, following an incubation period. Data is reported below after normalizing the level of PGE2 release of a negative control to “100%”. In-vitro testing was conducted using Human Gingival Fibroblast (HGF) cells that had been purchased from ScienCell (Carlsbad, Calif.). Prior to use, the cells had been grown in a 37° C. incubator with 5% CO2 and 95% humidity. Cells were maintained in high glucose Dulbecco's Modified Eagle's Medium (Mediatech, Manassas, Va.) with a 10% addition of heat inactivated Fetal Bovine Serum (Mediatech) and a 1% addition of Penicillin-Streptomycin 100× solution (Mediatech). Cells that had been previously frozen for long-term storage were allowed to recover/expand for at least one passage before being utilized for experimentation. To plate the cells, the maintenance medium was aspirated and the cells were washed with Hank's Balanced Salt Solution (Mediatech). Subsequently, the HBSS was aspirated and a trypsin-EDTA solution (Mediatech) was added to ensure that the cells released from the tissue culture plastic. Maintenance medium was reapplied and fractions of the solution containing the cells were transferred to a multi-well plate. After transfer, incubation was conducted to expand the cell population to 80% confluency. When the desired level of confluency was achieved, the maintenance medium was aspirated and one of several test solutions was added. For a negative control, a low serum medium was prepared that contained 0.5% of Fetal Bovine Serum (Mediatech) and 581.08 mg/L of L-gluatmine powder (Sigma-Aldrich, Milwaukee, Wis.) in DMEM High Glucose Media without Phenol Red and L-Glutamine (VWR Scientific, West Chester, Pa.). Low serum media were also prepared with the addition of 1, 10, or, 100 μg/mL of sodium propyl paraben (Sigma-Aldrich). […] An ELISA kit from R&D Systems (Minneapolis, Minn.) was used to quantify the release of PGE2 from the cells. […] The quantity of PGE2 reported by the assay was normalized by the percentage of viable cells or total protein. […]

[3] = system: Mouse macrophage Raw 264.7 cells; assay: LPS-induced PGE2 release from Raw 264.7 cells (Example 4)
Procedure: as §1

[4] = system: human gingival fibroblast HGF cells; assay: LPS-induced PGE2 release from HGF cells (Example 4); details: 100 μg/ml, without LPS
Procedure: as §1

Structure (SMILES) | LPS mediated IL-8 production ([1]; 1, 10 or 100 μg/ml, PG-LPS 2 μg/ml, FIG. 1C) | PGE2 Release (with LPS) ([2]; 1 μg/mL in low serum media) | PGE2 Release (with LPS) ([2]; 10 μg/mL in low serum media) | PGE2 Release (with LPS) ([2]; 100 μg/mL in low serum media) | PGE2 Release (without LPS) ([2]; 100 μg/mL in low serum media, no LPS, negative control = 100%) | LPS-elevated release of PGE2 ([3]; 1, 10 and 100 μg/ml, PG-LPS 2 μg/ml, FIG. 1A) | Induction of IL-8 by compound alone ([1]; 100 μg/ml, without LPS, either cell model) | Induction of PGE2 by compound alone [4] | Induction of PGE2 by compound alone ([3]; 100 μg/ml, without LPS)
CCCOC(=O)c1ccc(O)cc1.[Na] [Sodium Propyl Paraben, propyl 4-hydroxybenzoate, sodium salt] | reduced LPS mediated IL-8 production in a dose dependent manner | 124 ± 52% | 103 ± 23% | 84 ± 62% | 62 ± 37% | reduced to basal level |  |  | 
CCCOC(=O)c1ccc(O)cc1 [propyl paraben, propyl 4-hydroxybenzoate] |  |  |  |  |  |  | not observed | not observed | not observed
